Measurements as given in US8546401B2, “5,6-disubstituted oxindole-derivatives and use thereof for treating vasopressin-dependent diseases” (AbbVie Deutschland GmbH & Co. KG, priority 2007, dated 2013).
pKi: −log10 of the molar value.

Legend:
[1] = target: T1, human vasopressin V1a receptor (Homo sapiens, UniProt P37288); assay: Vasopressin V1a receptor binding assay; conditions: selectivity quotient, human receptors
T1 construct: expressed in transfected cells; host or cells: CHO-K1 (cell line hV1a_5_CHO), membrane preparation
T1 sequence (P37288 whole entry): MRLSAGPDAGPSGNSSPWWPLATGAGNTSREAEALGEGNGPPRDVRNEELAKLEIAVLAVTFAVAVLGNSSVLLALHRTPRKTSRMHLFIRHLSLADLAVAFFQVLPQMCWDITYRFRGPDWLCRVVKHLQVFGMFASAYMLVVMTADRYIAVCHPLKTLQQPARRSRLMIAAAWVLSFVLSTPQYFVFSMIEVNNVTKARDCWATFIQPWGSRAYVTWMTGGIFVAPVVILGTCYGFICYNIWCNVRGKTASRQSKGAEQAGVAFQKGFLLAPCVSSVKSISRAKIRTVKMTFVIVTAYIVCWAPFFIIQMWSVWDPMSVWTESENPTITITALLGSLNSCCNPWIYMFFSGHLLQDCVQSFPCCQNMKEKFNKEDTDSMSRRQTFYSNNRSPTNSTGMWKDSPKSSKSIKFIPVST
Method in brief: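 Membranes from CHO-K1 cells stably expressing the receptor (hV1a_5_CHO; 20 μg/ml protein) were incubated 60 min at room temperature with 0.04 nM ^125I-AVP and increasing test compound in 50 mM Tris, 10 mM MgCl2, 0.1% BSA, pH 7.4. Nonspecific binding was defined with 1 μM AVP and read by filtration and scintillation. Ki came from nonlinear regression using Kd 1.33 nM.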

[2] = target: T2, human oxytocin receptors (Homo sapiens, UniProt P30559); assay: Oxytocin receptor binding assay; conditions: selectivity quotient
T2 construct: expressed in transfected cells; host or cells: HEK-293, transient expression; lysed and homogenized cells
T2 sequence (P30559 1-389): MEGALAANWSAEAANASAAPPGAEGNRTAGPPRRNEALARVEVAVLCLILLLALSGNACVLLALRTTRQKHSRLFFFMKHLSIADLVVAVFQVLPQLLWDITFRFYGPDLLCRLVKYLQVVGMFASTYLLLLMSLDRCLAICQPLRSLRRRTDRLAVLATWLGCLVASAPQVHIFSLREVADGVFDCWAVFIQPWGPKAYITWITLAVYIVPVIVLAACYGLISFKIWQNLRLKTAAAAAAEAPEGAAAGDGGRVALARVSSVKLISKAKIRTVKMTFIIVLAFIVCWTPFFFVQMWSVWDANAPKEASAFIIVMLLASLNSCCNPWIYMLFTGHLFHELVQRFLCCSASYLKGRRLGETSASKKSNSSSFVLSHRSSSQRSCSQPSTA
Method in brief: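 Membranes from HEK-293 cells transiently expressing human oxytocin receptor, incubated with 3-4 nM ^3H-oxytocin in 50 mM Tris, 10 mM MgCl2, 0.1% BSA, pH 7.4; nonspecific binding with 10^−6 M oxytocin. Filtration and scintillation counting; Ki by nonlinear regression using Kd 7.6 nM.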

[3] = target: T3, human vasopressin V1b receptor (Homo sapiens, UniProt P47901); assay: Vasopressin V1b receptor binding assay; conditions: CHO-K1 membranes, 3H-AVP displacement
T3 construct: expressed in transfected cells; host or cells: CHO-K1 (cell line hV1b_3H2_CHO), membrane preparation
T3 sequence (P47901 1-424): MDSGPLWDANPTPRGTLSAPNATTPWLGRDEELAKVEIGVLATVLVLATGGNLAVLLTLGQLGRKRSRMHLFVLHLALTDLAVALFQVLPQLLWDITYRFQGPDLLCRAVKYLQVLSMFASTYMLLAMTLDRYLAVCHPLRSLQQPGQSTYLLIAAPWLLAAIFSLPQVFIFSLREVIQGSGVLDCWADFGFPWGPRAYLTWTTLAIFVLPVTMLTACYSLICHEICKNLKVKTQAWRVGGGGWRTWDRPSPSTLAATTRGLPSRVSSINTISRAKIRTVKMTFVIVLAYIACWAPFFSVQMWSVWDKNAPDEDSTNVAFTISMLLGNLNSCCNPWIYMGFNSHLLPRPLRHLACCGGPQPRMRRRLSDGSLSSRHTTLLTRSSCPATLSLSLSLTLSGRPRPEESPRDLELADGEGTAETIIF
Method in brief: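 Membranes (50 μg/ml protein) from CHO-K1 cells stably expressing human V1b were incubated with 1.5 nM ^3H-AVP in 50 mM Tris, 10 mM MgCl2, 0.1% BSA, pH 7.4, for 60 min at room temperature, 2% DMSO final. Bound ligand measured after filtration; Ki derived by nonlinear regression using Kd 0.4 nM.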

SMILES	Ki(h − V1a)/Ki(h − V1b)* [1]	Ki(h − OT)/Ki(h − V1b)* [2]	pKi [3]
CCOc1ncccc1C1(NC(=O)N2CCN(C3CCN(C)CC3)CC2)C(=O)N(S(=O)(=O)c2ccc(OC)cc2OC)c2cc(F)c(F)cc21 (stereo not drawn) [Example 31, 4-(1-Methylpiperidin-4-yl)piperazine-1-[1-(2,4-dimethoxyphenylsulfonyl)-3-(2-ethoxy-pyridin-3-yl)-5,6-difluoro-2-oxo-2,3-dihydro-1H-indol-3-yl]carboxamide]	+++ (>75)	+ (10-<25)	7.00 to 8.00
CCOc1ncccc1C1(NC(=O)N2CCN(C3CCN(CC)CC3)CC2)C(=O)N(S(=O)(=O)c2ccc(OC)cc2OC)c2cc(F)c(F)cc21 (stereo not drawn) [Example 33, 4-(1-Ethylpiperidin-4-yl)piperazine-1-[1-(2,4-dimethoxyphenylsulfonyl)-3-(2-ethoxy-pyridin-3-yl)-5,6-difluoro-2-oxo-2,3-dihydro-1H-indol-3-yl]carboxamide]	+++ (>75)	+++ (>75)	8.00 to 9.00
CCOc1ncccc1C1(NC(=O)N2CCC(N3CCN(C)CC3)CC2)C(=O)N(S(=O)(=O)c2ccc(OC)cc2OC)c2cc(F)c(F)cc21 (stereo not drawn) [Example 35, 4-(4-Methylpiperazin-1-yl)piperidine-1-[1-(2,4-dimethoxyphenylsulfonyl)-3-(2-ethoxy-pyridin-3-yl)-5,6-difluoro-2-oxo-2,3-dihydro-1H-indol-3-yl]carboxamide]	+ (10-<25)	+ (10-<25)	8.00 to 9.00
CCOc1ncccc1C1(OC(=O)N2CCN(C3CCN(C)CC3)CC2)C(=O)N(S(=O)(=O)c2ccc(OC)cc2OC)c2cc(F)c(C#N)cc21 (stereo not drawn) [Example 38, 5-Cyano-1-(2,4-dimethoxybenzenesulfonyl)-3-(2-ethoxypyridin-3-yl)-6-fluoro-2-oxo-2,3-dihydro-1H-indol-3-yl 4-(1-methylpiperidin-4-yl)piperazine-1-carboxylate]	+++ (>75)	+++ (>75)	> 9.00
CCOc1ncccc1C1(OC(=O)N2CCN(C3CCN(C)CC3)CC2)C(=O)N(S(=O)(=O)c2ccc(OC)cc2)c2cc(F)c(C#N)cc21 (stereo not drawn) [Example 39, 5-Cyano-3-(2-ethoxypyridin-3-yl)-6-fluoro-1-(4-methoxyphenylsulfonyl)-2-oxo-2,3-dihydro-1H-indol-3-yl 4-(1-methylpiperidin-4-yl)piperazine-1-carboxylate]	++ (25-75)	+++ (>75)	> 9.00
CCOc1ncccc1C1(OC(=O)N2CCN(C3CCN(C)CC3)CC2)C(=O)N(S(=O)(=O)c2ccccc2)c2cc(F)c(C#N)cc21 (stereo not drawn) [Example 40, 1-Phenylsulfonyl-5-cyano-3-(2-ethoxypyridin-3-yl)-6-fluoro-2-oxo-2,3-dihydro-1H-indol-3-yl 4-(1-methylpiperidin-4-yl)piperazine-1-carboxylate]	+ (10-<25)	+++ (>75)	8.00 to 9.00
CCOc1ncccc1C1(OC(=O)N2CCN(C3CCN(C)CC3)CC2)C(=O)N(S(=O)(=O)c2ccc(OC)cc2OC)c2cc(F)c(Cl)cc21 (stereo not drawn) [Example 41, 5-Chloro-1-(2,4-dimethoxyphenylsulfonyl)-3-(2-ethoxypyridin-3-yl)-6-fluoro-2-oxo-2,3-dihydro-1H-indol-3-yl 4-(1-methylpiperidin-4-yl)piperazine-1-carboxylate]	+ (10-<25)	+ (10-<25)	> 9.00
CCOc1ncccc1C1(OC(=O)N2CCN(C3CCN(C)CC3)CC2)C(=O)N(S(=O)(=O)c2ccc(OC)cc2)c2cc(F)c(Cl)cc21 (stereo not drawn) [Example 42, 5-Chloro-3-(2-ethoxypyridin-3-yl)-6-fluoro-1-(4-methoxyphenylsulfonyl)-2-oxo-2,3-dihydro-1H-indol-3-yl 4-(1-methylpiperidin-4-yl)piperazine-1-carboxylate]	+ (10-<25)	+ (10-<25)	> 9.00
CCOc1ncccc1C1(OC(=O)N2CCN(C3CCN(C)CC3)CC2)C(=O)N(S(=O)(=O)c2ccccc2OC)c2cc(F)c(Cl)cc21 (stereo not drawn) [Example 43, 5-Chloro-3-(2-ethoxypyridin-3-yl)-6-fluoro-1-(2-methoxyphenylsulfonyl)-2-oxo-2,3-dihydro-1H-indol-3-yl 4-(1-methylpiperidin-4-yl)piperazine-1-carboxylate]	++ (25-75)	+++ (>75)	> 9.00
CCOc1ncccc1C1(OC(=O)N2CCN(C3CCN(C)CC3)CC2)C(=O)N(S(=O)(=O)c2ccccc2)c2cc(F)c(Cl)cc21 (stereo not drawn) [Example 45, 1-Phenylsulfonyl-5-chloro-3-(2-ethoxypyridin-3-yl)-6-fluoro-2-oxo-2,3-dihydro-1H-indol-3-yl 4-(1-methylpiperidin-4-yl)piperazine-1-carboxylate]	+ (10-<25)	+++ (>75)	8.00 to 9.00
CCOc1ncccc1C1(OC(=O)N2CCN(C3CCN(C)CC3)CC2)C(=O)N(S(=O)(=O)c2ccc(OC)cc2OC)c2cc(Cl)c(F)cc21 (stereo not drawn) [Example 46, 6-Chloro-1-(2,4-dimethoxyphenylsulfonyl)-3-(2-ethoxypyridin-3-yl)-5-fluoro-2-oxo-2,3-dihydro-1H-indol-3-yl 4-(1-methylpiperidin-4-yl)piperazine-1-carboxylate]	++ (25-75)	+ (10-<25)	8.00 to 9.00
CCOc1ncccc1C1(OC(=O)N2CCN(C3CCN(C)CC3)CC2)C(=O)N(S(=O)(=O)c2ccccc2OC)c2cc(Cl)c(F)cc21 (stereo not drawn) [Example 50, 6-Chloro-3-(2-ethoxypyridin-3-yl)-5-fluoro-1-(2-methoxyphenylsulfonyl)-2-oxo-2,3-dihydro-1H-indol-3-yl 4-(1-methylpiperidin-4-yl)piperazine-1-carboxylate]	+ (10-<25)	++ (25-75)	7.00 to 8.00
CCOc1ncccc1C1(OC(=O)N2CCN(C3CCN(C)CC3)CC2)C(=O)N(S(=O)(=O)c2ccc(OC)cc2OC)c2cc(F)c(F)cc21 (stereo not drawn) [Example 51, 1-(2,4-dimethoxyphenylsulfonyl)-3-(2-ethoxypyridin-3-yl)-5,6-difluoro-2-oxo-2,3-dihydro-1H-indol-3-yl 4-(1-methylpiperidin-4-yl)piperazine-1-carboxylate]	+++ (>75)	++ (25-75)	8.00 to 9.00
CCOc1ncccc1C1(OC(=O)N2CCN(C3CCN(C)CC3)CC2)C(=O)N(S(=O)(=O)c2ccc(OC)cc2)c2cc(F)c(F)cc21 (stereo not drawn) [Example 52, 3-(2-Ethoxypyridin-3-yl)-5,6-difluoro-1-(4-methoxyphenylsulfonyl)-2-oxo-2,3-dihydro-1H-indol-3-yl 4-(1-methylpiperidin-4-yl)piperazine-1-carboxylate]	++ (25-75)	+ (10-<25)	8.00 to 9.00
CCOc1ncccc1C1(OC(=O)N2CCN(C3CCN(C)CC3)CC2)C(=O)N(S(=O)(=O)c2ccccc2OC)c2cc(F)c(F)cc21 (stereo not drawn) [Example 53, 3-(2-Ethoxypyridin-3-yl)-5,6-difluoro-1-(2-methoxyphenylsulfonyl)-2-oxo-2,3-dihydro-1H-indol-3-yl 4-(1-methylpiperidin-4-yl)piperazine-1-carboxylate]	++ (25-75)	++ (25-75)	8.00 to 9.00
